# Reference: patent US9301911B2, “Composition comprising tauroursodeoxycholic acid” (priority 2012, dated 2016)
# What was measured:
# collagenase = experiment: Inhibitory activity on collagenase (azocoll assay); type: biochemical; details: for Comparative inhibitory activity: [collagenase-inhibitory percentage of TUDCA / that of UDCA]*100
# Procedure: The inhibitory activities of tauroursodeoxycholic acid (TUDCA) and ursodeoxycholic acid (UDCA) on collagenase were evaluated according to an azocoll assay method. Azocoll, Azo dye-impregnated collagen, is not dissolved in Tris-buffer. […] Therefore, by reacting said test materials with azocoll and then measuring the respective absorbance, the inhibitory activities of said materials on collagenase can be determined.
# 2% Azocoll solution (200 μl) and a buffer solution (0.01 M Tris-HCl, 1 mM CaCl2, pH 7.8) (150 μl) were respectively added to the 6 test tubes to obtain the solutions (Solution A1 to A6). Each solution (100 μl) obtained by dissolving TUDCA or UDCA in 10% ethanol in various concentrations was added to the solutions A1 to A6, so as to obtain the final concentrations of 1.600 w/v %, 0.533 w/v %, and 0.178 w/v %, respectively. Collagenase (50 μl) having 100 ppm concentration was added to the respective test mixture, which was then stirred in a 37° C. incubator for 18 hours. Each test tube was centrifuged for 5 minutes. The supernatant was separated from each test tube and then added to a 96-well plate. The absorbance at 540 nm was measured by a spectrophotometer and then the activity of the test group was determined from the standard activity curve. The standard activity curve was separately prepared by adding 10, 25, 50, and 100 μl of collagenase to the azocoll solution.
# The collagenase-inhibitory ratio of TUDCA to the collagenase-inhibitory ratio of UDCA was determined according to the following formula and the results thereof are shown in Table 1. Comparative inhibitory activity=[Collagenase-inhibitory percentage of TUDCA/Collagenase-inhibitory percentage of UDCA]*100
# S. mutans = experiment: Antimicrobial activity against S. mutans (growth inhibition, O.D. 600 nm); type: cell-based, Streptococcus mutans
# Procedure: We evaluated antimicrobial activities of TUDCA (PRODOTTI CHIMICI E ALIMENTARI S.p.A. Co., Italy), bamboo salt, xanthorrhiza oil (curcuma xanthorrhiza oil having 22-35% of xanthorrhizol, ‘Curcuma Xanthorrhiza Essential Oil’ extracted from Curcuma Xanthorrhiza Root, Daewoong Bio Inc.), and a mixture thereof, against S. Mutans. Briefly, to each well of a 96-well plate, were added 100 μl of BHI broth (Brain Heart Infusion broth, Sigma-Aldrich) and each test material in two times higher concentration than the concentration shown in the following Table 2. S. mutans was cultured in BHI broth (Brain Heart Infusion broth, Sigma-Aldrich) at 35° C. for 24 hours. Absorbance at 600 nm of the S. mutans-containing culture medium was adjusted to 0.063 to 0.12 and then the resulting culture medium was diluted to 1/500. The diluted S. Mutans-containing culture medium (100 μl) was added to each well of the 96-well plate. The 96-well plate was incubated at 35° C. for 24 hours, followed by measuring the O.D. values at 600 nm with a spectrophotometer for obtaining the respective growth inhibition percentage.
# Antimicrobial activities against S. mutans were evaluated using TUDCA in a relatively low concentration. Using the same kinds of TUDCA, bamboo salt, and xanthorrhiza oil, the evaluations of antimicrobial activity were carried out in the same manners as in Example 2.
smiles,measurement,setting,value
"C[C@H](CCC(=O)NCCS(=O)(=O)O)[C@H]1CC[C@H]2[C@@H]3[C@@H](O)C[C@@H]4C[C@H](O)CC[C@]4(C)[C@H]3CC[C@]12C [TUDCA, tauroursodeoxycholic acid]",inhibitory activity against collagenase in comparison with UDCA,"collagenase; at the same concentration, in comparison with UDCA",about two times more strong inhibitory activity against collagenase
same,Comparative inhibitory activity,collagenase; test material 0.178 w/v %,264.75%
same,Comparative inhibitory activity,collagenase; test material 0.533 w/v %,252.56%
same,Comparative inhibitory activity,collagenase; test material 1.600 w/v %,227.17%
same,Growth inhibition,"S. mutans; Table 2, TUDCA 0.5 w/v %",38 ± 16%
same,Growth inhibition,"S. mutans; Table 2, TUDCA 1 w/v %",51 ± 13%
same,Growth inhibition,"S. mutans; Table 3, TUDCA 0.01 w/v %",13%
same,growth-inhibition activity against S. mutans (in words),S. mutans; summary of Table 2,effective growth-inhibition activity
